Laboratory results as given in US20210330611A1, “THERAPY FOR NEUROLOGICAL DISEASES/DISORDERS” (priority 2020, published 2021).
Where a name gives a salt, the structure may show the parent alone. Read-outs that look alike come from different tables or passages of the source.

Legend:
[1] = tested on: fibrin-induced microglia activation; experiment: Image-based assay of fibrin-induced microglia activation (HTS and dose response); format: cell-based, rat; settings: for inhibition at 10 µM: Rattus norvegicus, Microglia, read-out: Fibrin % inhibition
[2] = tested on: LPS-induced microglia activation; experiment: Image-based assay of LPS-induced microglia activation (HTS and dose response); format: cell-based, rat; settings: for inhibition at 10 µM: Rattus norvegicus, Microglia, read-out: LPS % inhibition
[3] = tested on: fibrin- and LPS-induced microglia activation; experiment: cells; format: cell-based, rat
primary rat microglia [4] = tested on: primary rat microglia;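 for Fibrin % cell toxicity: share of dead cells sized under 150 µm2 at 10 µM in fibrin-stimulated microglia HTS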
primary rat microglia [5] = tested on: primary rat microglia; remark: listed apart in the source;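 for Fibrin % cell toxicity: share of dead cells sized under 150 µm2 at 10 µM in fibrin-stimulated microglia HTS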
[6] = primary HTS, 10 μM, fibrin-stimulated primary microglia
[7] = primary HTS, 10 μM, LPS-stimulated primary microglia
[8] = primary microglia HTS, 10 μM, fibrin-stimulated, cell size >800 μm^2 as marker of activation
[9] = primary microglia HTS, 10 μM, LPS-stimulated, cell size >800 μm^2 as marker of activation
[10] = HTS of 1907 compounds, quadrant by fibrin and LPS inhibition
[11] = primary microglia HTS, fibrin stimulation, increased cell size (>800 μm^2) as marker of activation
[12] = 48 h, primary microglia HTS, LPS stimulation, increased cell size (>800 μm^2) as marker of activation
[13] = quadrant by fibrin and LPS inhibition in HTS of 1907 compounds
[14] = primary microglia HTS, fibrin stimulation, compounds at 10 μM
[15] = primary microglia HTS, LPS stimulation, compounds at 10 μM

Row | Compound | Fibrin % cell toxicity (primary rat microglia [4]; rat) [%] | LPS % cell toxicity (primary rat microglia [5]; rat) [%] | inhibition at 10 µM [1] [%] | Quadrant (FIG. 5b) [3] | other results
1 | Clc1ccc(Cn2c(CN3CCCC3)nc3ccccc32)cc1 [Clemizole Hydrochloride] | 0 | 1 | – | – | inhibition at 10 µM [1, 6]: -38%; inhibition at 10 µM [2, 7]: 21%; Quadrant (FIG. 5b) ([3]; primary HTS, 10 μM): Q4
2 | CCCN[C@H]1CCc2nc(N)sc2C1 [Pramipexole] | 1 | 0 | -19 | Q4 | inhibition at 10 µM ([2]; 48 h): 1%
3 | Clc1ccc2nsnc2c1NC1=NCCN1 [Tizanidine] | 1 | 1 | 2 | Q4 | inhibition at 10 µM [2]: 2%
4 | C[N+](C)(C)CCOP(=O)(O)OP(=O)([O-])OC[C@H]1O[C@@H](n2ccc(N)nc2=O)[C@H](O)[C@@H]1O [Citicoline] | 1 | 0 | – | – | inhibition at 10 µM [1, 6]: 5%; inhibition at 10 µM [2, 7]: 16%; Quadrant (FIG. 5b) ([3]; primary HTS, 10 μM): Q4
5 | NC[C@H]1CC[C@H](C(=O)O)CC1 [Tranexamic Acid] | 1 | 0 | -4 | Q4 | inhibition at 10 µM [2]: 13%
6 | Cc1ccc(C(=O)c2cc(O)c(O)c([N+](=O)[O-])c2)cc1 [Tolcapone] | 1 | 0 | – | – | inhibition at 10 µM [1, 8]: -43%; inhibition at 10 µM [2, 9]: 9%; Quadrant (FIG. 5b) [3, 10]: Q4
7 | O=c1[nH]c(=O)n(Cl)c(=O)n1Cl [Troclosene Potassium] | 1 | 0 | -8 | Q4 | inhibition at 10 µM [2]: 1%
8 | CCN(CC)CCCC(C)Nc1c2ccc(Cl)cc2nc2ccc(OC)cc12 (stereo not drawn) [Quinacrine] | 1 | 65 | – | – | inhibition at 10 µM [1, 11]: 24%; inhibition at 10 µM [2, 12]: 118%; Quadrant (FIG. 5b) [3, 13]: Q1
9 | Nc1ccc(S(=O)(=O)Nc2ccccn2)cc1 [Sulfapyridine] | 1 | 0 | – | – | inhibition at 10 µM [1, 8]: -37%; inhibition at 10 µM [2, 9]: 20%; Quadrant (FIG. 5b) [3, 10]: Q4
10 | O=C(O)c1cc(=O)[nH]c(=O)[nH]1 [Orotic Acid] | 0 | 0 | – | – | inhibition at 10 µM [1, 11]: -5%; inhibition at 10 µM [2, 12]: 16%; Quadrant (FIG. 5b) [3, 13]: Q4
11 | CN(CCOc1ccc(CC2SC(=O)NC2=O)cc1)c1ccccn1 (stereo not drawn) [Rosiglitazone, Rosiglitazone Maleate] | – | – | – | Q4 | Fibrin % inhibition [1]: 5%; LPS % inhibition [2]: 20%; Fibrin % cell toxicity (primary rat microglia [4]): 1%; LPS % cell toxicity (primary rat microglia [5]): 1%
12 | Brc1c(NC2=NCCN2)ccc2nccnc12 [Brimonidine] | 1 | 0 | -36 | Q4 | inhibition at 10 µM [2]: -9%
13 | CC=CC(=O)N(CC)c1ccccc1C [Crotamiton] | – | – | – | – | Fibrin % inhibition [1, 14]: 12%; LPS % inhibition [2, 15]: 3%; Quadrant (FIG. 5b) ([3]; classification by fibrin and LPS inhibition, HTS at 10 μM): Q4; Fibrin % cell toxicity (primary rat microglia [4]): 0%; LPS % cell toxicity (primary rat microglia [5]): 0%
14 | Cc1ccc(C(=O)c2ccc(CC(=O)O)n2C)cc1 [Tolmetin] | 0 | 0 | – | – | inhibition at 10 µM [1, 8]: 48%; inhibition at 10 µM [2, 9]: 28%; Quadrant (FIG. 5b) [3, 10]: Q4
15 | Oc1ccc2c3c1O[C@H]1[C@@H](O)CC[C@@]4(O)[C@@H](C2)N(CC2CCC2)CC[C@]314 [Nalbuphine] | 1 | 0 | – | Q4 | Fibrin % inhibition [1]: −8%; inhibition at 10 µM ([2]; 48 h): 16%
16 | CO[C@@]12[C@H](COC(N)=O)C3=C(C(=O)C(C)=C(N)C3=O)N1C[C@@H]1N[C@@H]12 [Mitomycin C, Mitomycin] | – | – | – | Q2 | Fibrin % inhibition ([1]; 10 µM): 112%; LPS % inhibition ([2]; 10 µM): 110%; Fibrin % cell toxicity (primary rat microglia [4]): 74%; LPS % cell toxicity (primary rat microglia [5]): 49%
17 | CN(C)c1ccc2nc3ccc(=[N+](C)C)cc-3sc2c1 [Methylene Blue] | 1 | 1 | 25 | Q1 | inhibition at 10 µM ([2]; 48 h): 73%
18 | Cc1cc(=O)oc2cc(O)ccc12 [7-hydroxy-4-methyl-2H-chromen-2-one] | 0 | 0 | – | – | inhibition at 10 µM [1, 14]: 12%; inhibition at 10 µM [2, 15]: 4%; Quadrant (FIG. 5b) ([3]; quadrant by fibrin and LPS inhibition, HTS at 10 μM): Q4
